According to patent US20140155376A1, “PYRROLOPYRAZINE KINASE INHIBITORS” (Hoffmann-La Roche Inc., priority 2010, published 2014):

Molecular target: T1, JAK3 (recombinant human kinase domain; h-jak3(810-1124)) (Homo sapiens, UniProt P52333)
T1 construct: h-jak3(810- 1124)-sf9-c; made in house; host or cells: Sf9 insect cells
Assay: Determination of IC50 of Janus Kinase (JAK) inhibition: JAK3, radioactive end-point assay with 33P-ATP
Format: biochemical
Details: JAK3 kinase domain; ATP 1.5 uM, peptide 50 uM, 20 minutes, room temperature, 10% DMSO; read-out: Ic50 h-jak3(810-1124)-sf9-c:no additive

T1 sequence (P52333 810-1124): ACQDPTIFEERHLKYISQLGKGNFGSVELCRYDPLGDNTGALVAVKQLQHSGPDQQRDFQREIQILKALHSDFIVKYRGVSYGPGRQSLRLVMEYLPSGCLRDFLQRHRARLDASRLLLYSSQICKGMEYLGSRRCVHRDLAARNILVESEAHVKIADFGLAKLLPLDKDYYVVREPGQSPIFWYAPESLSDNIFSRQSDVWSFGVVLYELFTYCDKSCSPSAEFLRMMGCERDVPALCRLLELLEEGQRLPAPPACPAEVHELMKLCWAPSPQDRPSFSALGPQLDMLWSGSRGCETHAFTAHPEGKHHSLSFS

SMILES | IC50
CC(C)NC(=O)c1c[nH]c2ncc(Oc3cccc(Cl)c3)nc12 [Example I-243, 2-(3-Chloro-phenoxy)-5H-pyrrolo[2,3-b]pyrazine-7-carboxylic acid isopropylamide] | 310 nM
CC(C)(C#N)C(NC(=O)c1c[nH]c2ncc(C3CC3)nc12)C1CC1 (stereo not shown) [Example I-81, 2-Cyclopropyl-5H-pyrrolo[2,3-b]pyrazine-7-carboxylic acid (2-cyano-1-cyclopropyl-2,2-dimethyl-ethyl)-amide] | 16 nM
CC(C)(O)[C@H](NC(=O)c1c[nH]c2ncc(C3CC3)nc12)C1CC1 [Example I-74, 2-Cyclopropyl-5H-pyrrolo[2,3-b]pyrazine-7-carboxylic acid ((R)-1-cyclopropyl-2-hydroxy-2-methyl-propyl)-amide] | 27.1 nM
C[C@@H](NC(=O)c1c[nH]c2ncc(C3CC3)nc12)c1ccccc1 [Example I-66, 2-Cyclopropyl-5H-pyrrolo[2,3-b]pyrazine-7-carboxylic acid ((R)-1-phenyl-ethyl)-amide] | 50 nM
